molecular target: human h-PGDS (Homo sapiens, UniProt O60760); assay: Enzyme Immunoassay (EIA) method (Assay 2); assay type: biochemical; conditions: assigned
From the text: The compounds of the present invention can be tested for enzymatic inhibiting activity against PGD2 Synthase according to either one of the following assays.
Assay 2: Enzyme Immunoassay (EIA) Method
• a. Preparation of 0.1M K2HPO4/KH2PO4 buffer (pH ˜7.4) • Prepare 0.1 M KH2PO4 from 1M KH2PO4 (Sigma, Cat# P-8709) • Prepare 0.1 M K2HPO4 from powder of K2HPO4 (Fisher, BP363-500) • Mix 0.1 M K2HPO4 with 0.1 M KH2PO4 to adjust pH to 7.4. • b. Preparation of 0.5% γ-globulin • Add 0.1 g of γ-globulin (Sigma, Cat# G-5009) to 20 mL 0.1 M K2HPO4/KH2PO4 buffer (pH ˜7.4) and make 1-ml/vial aliquots and store in −80° C. • c. Preparation of 100 mM GSH • Add 307 mg of GSH (Sigma, Cat# G-6529) to 10 mL 0.1 M K2HPO4/KH2PO4 buffer (pH ˜7.4) and store at −80° C. • d. Preparation of Reaction buffer: • 198 mL of 0.1M K2HPO4/KH2PO4 buffer (pH ˜7.4) • 2 mM GSH—Prepared from 100 mM GSH • 0.4 g Glycerol • 2 mL of 0.5% γ-globulin • Add 0.4 g of glycerol and 2 mL of 0.5% γ-globulin to 198 mL of 0.1 M K2HPO4/KH2PO4 • buffer (pH7.4). • Add 0.4 mL of 100 mM GSH to 19.6 ml reaction buffer before the assay (enough for two 96-well plates). • e. Preparation of FeCl2/citric acid stopping solution: (8 mg/mL FeCl2, 0.1 M citric acid) • Add 40 mg fresh FeCl2 (IGN, Cat# 158046) to 5 ml 0.1 M citric acid (Sigma, Cat# C0759). • f. Preparation of MOX reagent: • 10% EtOH-Add 1 mL of EtOH to 9 mL of ultra pure H2O • Dissolve 0.1 g of methoxylamine (Cayman, Cat# 400036/) in 10% EtOH (10 mL). • Add 0.82 g of sodium acetate (Cayman, Cat#400037) to MOX solution and dissolve. II. Materials and Method • Dimethylsulfoxide (DMSO; Sigma; Cat# D2650) • Prostaglandin D2-MOX express EIA kit (Caymen Chemical, Catalog No. 500151)
Before the assay, cool down 10 mL of acetone in polypropylene tubes and empty 96 well plates in ice. All the procedures except compound dilution are performed on ice.
• 1. Dilute Compound in DMSO
• 2. Dilute 2 μL of each above concentration of compound to 38 μL of reaction buffer in 96-well plates and mix. IV. Enzyme and Substrate Solution Preparation • 1. Preparation of 0.39 ng/μL enzyme solution (0.35 ng/μL at final after compound addition). • Mix 4 μL of 4 mg/mL human h-PGDS with 396 μL of reaction buffer (to give enzyme concentration 40 μg/mL). Add 46.8 μL of 40 μg/mL h-PGDS to 4.753 mL of reaction buffer to give a total volume of 4.8 mL • 2. Preparation of Substrate Solution (PGH2): Add 0.375 mL of 0.1 mg/mL of PGH2 to 1.625 mL acetone. V. Enzyme Reaction: • 1. Add 60 μL of enzyme solution to compound well and positive control (without compound) in U-bottom polypropylene plate on ice. • 2. Add 60 μL of reaction buffer and 6.6 μL of 5% DMSO in reaction buffer into negative control wells in the plate. • 3. Add 6.6 μL of diluted compound in reaction buffer to the compound wells and mix. • 4. Add 6.6 μL of 5% DMSO in reaction buffer to the positive control well. • 5. Incubate the plate in ice for at least 30 min. • 6. Add 20 μL of substrate (PGH2) solution to compound, negative and positive control wells in the U-bottom 96 well plate on ice. • 7. Dry the plate in cold room for about 25-28 min. • 8. Pipette 45 μL of enzyme solution (above) into 96-wells with dried PGH2 and mix 3 times. Incubate on the ice for 1 min. • 9. Add 45 μL of FeCl2 solution into each wells and mix. • 10. Add 90 μL of MOX solution and mix. • 11. Incubate for 30 min at 60° C. • 12. Dilute the samples 2500× with EIA buffer. VI. EIA assay • Perform the assay according to the procedure in EIA kit provided by Cayman. […]

human h-PGDS, sequence (O60760 whole entry): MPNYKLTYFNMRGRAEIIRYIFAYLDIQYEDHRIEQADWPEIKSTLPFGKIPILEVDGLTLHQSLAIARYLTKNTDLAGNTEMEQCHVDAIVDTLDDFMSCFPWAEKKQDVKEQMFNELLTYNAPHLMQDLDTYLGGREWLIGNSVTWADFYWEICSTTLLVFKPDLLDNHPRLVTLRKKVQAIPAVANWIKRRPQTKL

IC50 | SMILES
58 nM | CCNS(=O)(=O)c1cccc(CNC(=O)c2cnc(-c3cccc(F)c3)nc2)c1 [Example 45, 2-(3-Fluoro-phenyl)-pyrimidine-5-carboxylic acid 3-ethylsulfamoyl-benzylamide]
132 nM | O=C(NCc1cccc(S(=O)(=O)NC2CC2)c1)c1cnc(-c2cccc(F)c2)nc1 [Example 48, 2-(3-Fluoro-phenyl)-pyrimidine-5-carboxylic acid 3-cyclopropylsulfamoyl-benzylamide]
22 nM | O=C(NCc1cccc(S(=O)(=O)NCCCO)c1)c1cnc(-c2cccc(F)c2)nc1 [Example 49, 2-(3-Fluoro-phenyl)-pyrimidine-5-carboxylic acid 3-(3-hydroxy-propylsulfamoyl)-benzylamide]
60 nM | CC(C)(CO)NS(=O)(=O)c1cccc(CNC(=O)c2cnc(-c3cccc(F)c3)nc2)c1 [Example 54, 2-(3-Fluoro-phenyl)-pyrimidine-5-carboxylic acid 3-(2-hydroxy-1,1-dimethyl-ethylsulfamoyl)-benzylamide]
31 nM | NS(=O)(=O)c1cccc(CNC(=O)c2cnc(-c3cccc(F)c3)nc2)c1 [Example 55, 2-(3-Fluoro-phenyl)-pyrimidine-5-carboxylic acid 3-sulfamoyl-benzylamide]
45 nM | CN(C)CCNS(=O)(=O)c1cccc(CNC(=O)c2cnc(-c3cccc(F)c3)nc2)c1 [Example 63, 2-(3-Fluoro-phenyl)-pyrimidine-5-carboxylic acid 3-(2-dimethylamino-ethylsulfamoyl)-benzylamide]
35 nM | CN(C)CC(C)(C)CNS(=O)(=O)c1cccc(CNC(=O)c2cnc(-c3cccc(F)c3)nc2)c1 [Example 65, 2-(3-Fluoro-phenyl)-pyrimidine-5-carboxylic acid 3-(3-dimethylamino-2,2-dimethyl-propylsulfamoyl)-benzylamide]

Second part, the compound before the results:

SMILES | IC50
O=C(NCc1ccccc1)c1cnc(-c2ccccc2)nc1 [Example 1, 2-Phenyl-pyrimidine-5-carboxylic acid benzylamide] | 10 nM
NS(=O)(=O)c1ccc(NC(=O)c2cnc(-c3ccccc3)nc2)cc1 [Example 30, 2-Phenyl-pyrimidine-5-carboxylic acid (4-sulfamoyl-phenyl)-amide] | 5 nM
CN1CCC(NC(=O)c2cnc(-c3ccccc3)nc2)CC1 [Example 38, 2-Phenyl-pyrimidine-5-carboxylic acid (1-methyl-piperidin-4-yl)-amide] | 96 nM
CNS(=O)(=O)c1cccc(CNC(=O)c2cnc(-c3cc(F)cc(F)c3)nc2)c1 [Example 40, 2-(3,5-Difluoro-phenyl)-pyrimidine-5-carboxylic acid 3-methylsulfamoyl-benzylamide] | 49 nM
COCCCNS(=O)(=O)c1cccc(CNC(=O)c2cnc(-c3cccc(F)c3)nc2)c1 [Example 51, 2-(3-Fluoro-phenyl)-pyrimidine-5-carboxylic acid 3-(3-methoxy-propylsulfamoyl)-benzylamide] | 37 nM
O=C(NCc1cccc(S(=O)(=O)NCCN2CCOCC2)c1)c1cnc(-c2cccc(F)c2)nc1 [Example 56] | 37 nM
Cc1nc(-c2cccc(F)c2)ncc1C(=O)NCc1cccc(CNS(C)(=O)=O)c1 [Example 68, 2-(3-Fluoro-phenyl)-4-methyl-pyrimidine-5-carboxylic acid 3-(methanesulfonylamino-methyl)-benzylamide] | 48.5 nM
Cc1nc(-c2cccc(F)c2)ncc1C(=O)NCc1cccc(CS(=O)(=O)NC(C)C)c1 [Example 71, 2-(3-Fluoro-phenyl)-4-methyl-pyrimidine-5-carboxylic acid 3-(isopropylsulfamoyl-methyl)-benzylamide] | 34 nM
CNS(=O)(=O)c1cccc(CNC(=O)c2cnc(-c3cccc(F)c3)nc2C)c1 [Example 85, 2-(3-Fluoro-phenyl)-4-methyl-pyrimidine-5-carboxylic acid 3-methylsulfamoyl-benzylamide] | 106 nM

From patent publication US8202863B2 (Aventis Pharmaceuticals Inc., priority 2005, dated 2012)
